# Data published in PubChem BioAssay AID1963425 (Molecular Pharmacology Branch, DTP, NCI, 2024).
# System: 323965-272-R-J2-PDC complex spheroid growth, % test/control
# Test: Anticancer human tumor 323965-272-R-J2-PDC patient-derived pancreatic carcinoma cell line growth inhibition [Asc]
# Details: for IC50: curve of first compound; for viability, T/C: stronger effect = lower value
# How it was run: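 Tumor cells were grown as complex spheroids with human endothelial cells (HUVEC) and human mesenchymal stem cells as stroma. Agents were tested alone and in combination, in half-log steps down from the clinical Cmax, or from 10 microM where Cmax was unknown.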
# [1] = second compound 0.00316 µM, first compound 0.0316 µM
# [2] = second compound 0.00316 µM, first compound 0.1 µM
# [3] = second compound 0.00316 µM, first compound 0.316 µM
# [4] = second compound 0.00316 µM, first compound 1 µM
# [5] = second compound 0.01 µM, first compound 0.0316 µM
# [6] = second compound 0.01 µM, first compound 0.1 µM
# [7] = second compound 0.01 µM, first compound 0.316 µM
# [8] = second compound 0.01 µM, first compound 1 µM
# [9] = second compound 0.0316 µM, first compound 0.0316 µM
# [10] = second compound 0.0316 µM, first compound 0.1 µM
# [11] = second compound 0.0316 µM, first compound 0.316 µM
# [12] = second compound 0.0316 µM, first compound 1 µM
# [13] = second compound 0.1 µM, first compound 0.0316 µM
# [14] = second compound 0.1 µM, first compound 0.1 µM
# [15] = second compound 0.1 µM, first compound 0.316 µM
# [16] = second compound 0.1 µM, first compound 1 µM
# [17] = second compound 0.316 µM, first compound 0.0316 µM
# [18] = second compound 0.316 µM, first compound 0.1 µM
# [19] = second compound 0.316 µM, first compound 0.316 µM
# [20] = second compound 0.316 µM, first compound 1 µM
# [21] = second compound 1 µM, first compound 0.0316 µM
# [22] = second compound 1 µM, first compound 0.1 µM
# [23] = second compound 1 µM, first compound 0.316 µM
# [24] = second compound 1 µM, first compound 1 µM
# 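Further: compound exposure lasted 7 days starting three days after spheroid seeding.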
# 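Wherever viability, T/C is given: 100% = DMSO vehicle control wells with viability set relative to vehicle.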
structure (smiles),measurement,setting,value
C=CC(=O)N1CCN(c2nc(=O)n(-c3c(C)ccnc3C(C)C)c3nc(-c4c(O)cccc4F)c(F)cc23)C(C)C1 (centres undefined) + CNC(C)C(=O)NC1CN(S(=O)(=O)c2cccc(S(=O)(=O)N3CCC4CCC(C(=O)NC(c5ccccc5)c5ccccc5)N4C(=O)C(NC(=O)C(C)NC)C3)c2)CCC2CCC(C(=O)NC(c3ccccc3)c3ccccc3)N2C1=O,IC50,second compound 0.00316 µM,> 10000 nM
same,IC50,second compound 0.01 µM,> 10000 nM
same,IC50,second compound 0.0316 µM,> 10000 nM
same,IC50,second compound 0.1 µM,> 10000 nM
same,IC50,second compound 0.316 µM,> 10000 nM
same,IC50,second compound 1 µM,> 10000 nM
same,"viability, T/C",[1],67.7%
same,"viability, T/C",[2],59.1%
same,"viability, T/C",[3],61.1%
same,"viability, T/C",[4],57.4%
same,"viability, T/C","second compound 0.00316 µM, first compound 3.16 µM",66.1%
same,"viability, T/C","second compound 0.00316 µM, first compound 10 µM",60.2%
same,"viability, T/C",[5],66.5%
same,"viability, T/C",[6],70.6%
same,"viability, T/C",[7],56.9%
same,"viability, T/C",[8],69.8%
same,"viability, T/C","second compound 0.01 µM, first compound 3.16 µM",55.9%
same,"viability, T/C","second compound 0.01 µM, first compound 10 µM",70.3%
same,"viability, T/C",[9],83.4%
same,"viability, T/C",[10],67.7%
same,"viability, T/C",[11],62.4%
same,"viability, T/C",[12],60.6%
same,"viability, T/C","second compound 0.0316 µM, first compound 3.16 µM",62%
same,"viability, T/C","second compound 0.0316 µM, first compound 10 µM",67.2%
same,"viability, T/C",[13],76.3%
same,"viability, T/C",[14],60.5%
same,"viability, T/C",[15],66.7%
same,"viability, T/C",[16],58.8%
same,"viability, T/C","second compound 0.1 µM, first compound 3.16 µM",63.9%
same,"viability, T/C","second compound 0.1 µM, first compound 10 µM",61.3%
same,"viability, T/C",[17],64.3%
same,"viability, T/C",[18],65.8%
same,"viability, T/C",[19],56.9%
same,"viability, T/C",[20],54.9%
same,"viability, T/C","second compound 0.316 µM, first compound 3.16 µM",63.2%
same,"viability, T/C","second compound 0.316 µM, first compound 10 µM",64.3%
same,"viability, T/C",[21],60.1%
same,"viability, T/C",[22],61.1%
same,"viability, T/C",[23],57.9%
same,"viability, T/C",[24],60.3%
same,"viability, T/C","second compound 1 µM, first compound 3.16 µM",59%
same,"viability, T/C","second compound 1 µM, first compound 10 µM",56.6%
COc1c(OCCCN2CCOCC2)ccc2c3n(c(=NC(=O)c4cnc(N)nc4)nc12)CCN3 + CNC(C)C(=O)NC1CN(S(=O)(=O)c2cccc(S(=O)(=O)N3CCC4CCC(C(=O)NC(c5ccccc5)c5ccccc5)N4C(=O)C(NC(=O)C(C)NC)C3)c2)CCC2CCC(C(=O)NC(c3ccccc3)c3ccccc3)N2C1=O,IC50,second compound 0.00316 µM,129 nM
same,IC50,second compound 0.01 µM,99.2 nM
same,IC50,second compound 0.0316 µM,92.6 nM
same,IC50,second compound 0.1 µM,78.4 nM
same,IC50,second compound 0.316 µM,102 nM
same,IC50,second compound 1 µM,70.5 nM
same,"viability, T/C","second compound 0.00316 µM, first compound 0.00316 µM",97.2%
same,"viability, T/C","second compound 0.00316 µM, first compound 0.01 µM",81.3%
same,"viability, T/C",[1],69.5%
same,"viability, T/C",[2],54.6%
same,"viability, T/C",[3],36.9%
same,"viability, T/C",[4],32.4%
same,"viability, T/C","second compound 0.01 µM, first compound 0.00316 µM",91.6%
same,"viability, T/C","second compound 0.01 µM, first compound 0.01 µM",88.9%
same,"viability, T/C",[5],60.1%
same,"viability, T/C",[6],52.8%
same,"viability, T/C",[7],36.8%
same,"viability, T/C",[8],26%
same,"viability, T/C","second compound 0.0316 µM, first compound 0.00316 µM",94.7%
same,"viability, T/C","second compound 0.0316 µM, first compound 0.01 µM",84.1%
same,"viability, T/C",[9],66.4%
same,"viability, T/C",[10],48.6%
same,"viability, T/C",[11],37.6%
same,"viability, T/C",[12],31.3%
same,"viability, T/C","second compound 0.1 µM, first compound 0.00316 µM",89.5%
same,"viability, T/C","second compound 0.1 µM, first compound 0.01 µM",80.1%
same,"viability, T/C",[13],62.9%
same,"viability, T/C",[14],49.3%
same,"viability, T/C",[15],29.9%
same,"viability, T/C",[16],29.4%
same,"viability, T/C","second compound 0.316 µM, first compound 0.00316 µM",84.9%
same,"viability, T/C","second compound 0.316 µM, first compound 0.01 µM",85.4%
same,"viability, T/C",[17],73.3%
same,"viability, T/C",[18],49.7%
same,"viability, T/C",[19],36.8%
same,"viability, T/C",[20],30.3%
same,"viability, T/C","second compound 1 µM, first compound 0.00316 µM",85.2%
same,"viability, T/C","second compound 1 µM, first compound 0.01 µM",76.3%
same,"viability, T/C",[21],60.5%
same,"viability, T/C",[22],43.4%
same,"viability, T/C",[23],35.8%
same,"viability, T/C",[24],24.3%
